# Reference: patent publication US7691578B2, “Methods and compositions for treating obesity” (Dana-Farber Cancer Institute, Inc., priority 2004, dated 2010)
# “Also recorded” adds a separate entry of the source. Like-named read-outs stand apart in the source and are kept apart here.
# Assays:
# AMP Kinase = experiment: Western blot of phosphorylated (activated) AMP Kinase in HIB1B cells; format: cell-based; conditions: 24 hours
# Protocol: (§1) HIB1B brown fat cells were grown in DMEM (10% cosmic calf serum)+0.25 mg/ml penicillin/streptomycin at 37° C., 10% CO2.
# (§2) In FIG. 2A, HIB1B cells were treated with 2 μM FCCP for 0-72 hours. In FIG. 2B, cells were treated with 50 μM FCCP for 0-48 hours. In FIG. 2C, cells were treated for 24 hours with either 50 μM FCCP or 500 μM AICAR, a compound that activates AMP Kinase. Protein was isolated, run on an SDS polyacrylamide gel, and transferred to a PVDF membrane, and blotted for the proteins indicated in the figures.
# PGC-1α [1] = experiment: Real time PCR of PGC-1α expression in 10T 1/2 fibroblasts; format: cell-based
# Protocol: (§3) HIB1B brown fat cells were grown in DMEM (10% cosmic calf serum)+0.25 mg/ml penicillin/streptomycin at 37° C., 10% CO2. 10T 1/2 fibroblasts were grown in DMEM+10% fetal bovine serum+0.25 mg/ml penicillin/streptomycin at 37° C., 10% CO2.
# (§4) 10T 1/2 cells were treated with 50 μM FCCP, 10 μM BAPTA, a calcium chelator, or both FCCP and BAPTA for 16 hours. RNA was extracted using trizol and gene expression was measured using real time PCR. All expression levels were adjusted to actin and then the fold induction of expression was determined using the untreated cells as the control.
# (§5) 10T 1/2 fibroblasts were grown in DMEM+10% fetal bovine serum+0.25 mg/ml penicillin/streptomycin at 37° C., 10% CO2. HIB1B cells were grown in DMEM+10% cosmic calf serum+0.25 mg/ml penicillin/streptomycin at 37° C., 10% CO2.
# (§6) In FIG. 11A, 10T 1/2 cells were treated with 50 μM FCCP for 16 hours; in FIG. 11B, cells were treated for 72 hours with 25 μM FCCP. RNA was extracted using trizol and gene expression was measured using real time PCR. All expression levels were adjusted to actin and then the fold induction of expression was determined using the untreated cells as the control. In FIG. 11C, 10T 1/2 cells were treated for 16 hours with 50 μM FCCP. Lactate levels were measured using a lactate kit (Trinity Biotech), cells were counted, and lactate was graphed as mg lactate per million cells. In FIG. 12, HIB1B preadipocytes were treated with 25 μM FCCP, 250 μM DNP, 750 μM DNP or 1 mM DNP. RNA was extracted and run on a 1% agarose-formaldehyde gel (30 μg of RNA per lane). The gel was transferred to a nylon membrane and was probed for PGC-1α RNA and 36B4 RNA (36B4 represents the loading control).
# PGC-1β [2] = experiment: Real time PCR of PGC-1β expression in 10T 1/2 fibroblasts; format: cell-based; conditions: 16 hours
# Protocol: as §3, §4, §5
# as §6, with “In FIG. 12, HIB1B preadipocytes were treated with 25 μM FCCP, 250 μM DNP, 750 μM DNP or 1 mM DNP. RNA was extracted and run on a 1% agarose-formaldehyde gel (30 μg of RNA per lane). The gel was transferred to a nylon membrane and was probed for PGC-1α RNA and 36B4 RNA (36B4 represents the loading control).” left out
# cytochrome c [3] = experiment: Real time PCR of cytochrome c expression in 10T 1/2 fibroblasts; format: cell-based; conditions: 16 hours
# Protocol: as §3, §4, §5
# as §6, with “In FIG. 12, HIB1B preadipocytes were treated with 25 μM FCCP, 250 μM DNP, 750 μM DNP or 1 mM DNP. RNA was extracted and run on a 1% agarose-formaldehyde gel (30 μg of RNA per lane). The gel was transferred to a nylon membrane and was probed for PGC-1α RNA and 36B4 RNA (36B4 represents the loading control).” left out
# COX II [4] = experiment: Real time PCR of COX II expression in 10T 1/2 fibroblasts; format: cell-based; conditions: 16 hours
# Protocol: as §3, §4, §5
# as §6, with “In FIG. 12, HIB1B preadipocytes were treated with 25 μM FCCP, 250 μM DNP, 750 μM DNP or 1 mM DNP. RNA was extracted and run on a 1% agarose-formaldehyde gel (30 μg of RNA per lane). The gel was transferred to a nylon membrane and was probed for PGC-1α RNA and 36B4 RNA (36B4 represents the loading control).” left out
# ATP synthase = experiment: Real time PCR of ATP synthase expression in 10T 1/2 fibroblasts; format: cell-based; conditions: 16 hours
# Protocol: as §3, §4, §5
# as §6, with “In FIG. 12, HIB1B preadipocytes were treated with 25 μM FCCP, 250 μM DNP, 750 μM DNP or 1 mM DNP. RNA was extracted and run on a 1% agarose-formaldehyde gel (30 μg of RNA per lane). The gel was transferred to a nylon membrane and was probed for PGC-1α RNA and 36B4 RNA (36B4 represents the loading control).” left out
# PGC-1α [5] = experiment: Northern blot of PGC-1α expression in HIB1B brown fat cells; format: cell-based
# Protocol: as §1
# (§7) In FIGS. 1A and 1B, HIB1B cells were treated with 25 μM FCCP for 0-25 hours. In FIG. 1C, HIB1B cells were treated for 5 hours with 0-200 μM FCCP. RNA was extracted using trizol and was resuspended in ddH2O. RNA was run on a 1% agarose-formaldehyde gel, and 30 ug of RNA was used per lane. 36B4 was used as the loading control.
# In FIG. 5A, HIB1B cells were treated with 0-15 μM Antimycin A, a Complex III inhibitor. In FIG. 5B, cells were treated for either 5 or 10 hours with 0-50 μM Atractlyoside, an adenine nucleotide transporter (ANT) inhibitor. RNA was extracted, run on a formaldehyde gel and transferred to a nylon membrane as previously described. Membranes were blotted for PGC-1α mRNA.
# In FIG. 7, HIB1B cells were treated for 5 hours with 0-50 μM Ruthenium Red (RR), an inhibitor of the mitochondrial Ca^2+ uniporter, simultaneously with either 5 μM or 25 μM FCCP as indicated in the figure. Untreated cells served as a control. RNA was extracted and analyzed as previously described. Membranes were blotted for PGC-1α. 36B4 served as the loading control.
# as §6
# animals = conditions: large doses of DNP; cited from earlier work
# PGC-1β [6] = conditions: HIB1B cells
# Protocol: as §1, §7
# PGC-1α protein = conditions: HIB1B cells, 2 μM FCCP, up to 72 hours
# Protocol: as §1, §2
# cytochrome c protein = conditions: HIB1B cells, 50 μM FCCP, up to 48 hours
# Protocol: as §1, §2
# PGC-1α [7] = conditions: HIB1B cells, 8 hours
# Protocol: as §1
# In FIG. 3, cells were treated for 8 hours as indicated on the figure. RNA was extracted as previously described and quantified using real time PCR. PGC-1α mRNA levels were normalized to TBP prior to analysis.
# HIB1B brown fat cells = conditions: 25 μM FCCP
# Protocol: as §1
# In FIG. 4, HIB1B cells were treated for either 5 or 10 hours with either 0 μM or 25 μM FCCP. ATP levels were measured using the Calbiochem ATP assay kit. For analysis, ATP levels were compared to those of untreated cells at the 5 and 10 hour time points.
# PGC-1β [8] = conditions: Fao cells
# Protocol: (§8) Fao liver hepatoma cells were grown in RPMI (10% fetal bovine serum)+0.25 mg/ml penicillin/streptomycin at 37° C., 5% CO2.
# (§9) In FIG. 6A, Fao liver hepatoma cells were treated with 2 μM FCCP for 0-48 hours. In FIGS. 6B and 6C, cells were treated for 24 hours with either 2 μM or 25 μM FCCP. RNA was extracted and analyzed as previously described.
# UCP2 = conditions: Fao cells, 24 hour treatment, 2 μM and 25 μM FCCP
# Protocol: as §8, §9
# 10T 1/2 fibroblasts = conditions: 50 μM FCCP, 16 hours
# Protocol: as §5, §6
# NRF-1 [9] = conditions: 10T 1/2 fibroblasts, 50 μM FCCP, 16 hours
# Protocol: as §5, §6
# COX II [10] = conditions: PGC-1α knock out preadipocytes, 25 μM FCCP, 24 hours
# Protocol: (§10) Wild type and PGC-1α knock out preadipocytes were grown in DMEM+20% fetal bovine serum+0.25 mg/ml penicillin/streptomycin at 37° C., 10% CO2.
# (§11) Wild type and PGC-1α knock out preadipocytes were treated for 24 hours with or without 25 μM FCCP. RNA was extracted using trizol and gene expression was measured using real time PCR. All expression levels were adjusted to actin and then the fold induction of expression was determined using the untreated cells as the control.
# ERRα = conditions: PGC-1α knock out preadipocytes, 25 μM FCCP, 24 hours
# Protocol: as §10, §11
# NRF-1 [11] = conditions: PGC-1α knock out preadipocytes, 25 μM FCCP, 24 hours
# Protocol: as §10, §11
# PGC-1β [12] = conditions: PGC-1α knock out preadipocytes, 25 μM FCCP, 24 hours
# Protocol: as §10, §11
# [13] = tested on: adenine nucleotide translocase (ANT); conditions: PGC-1α knock out preadipocytes, 25 μM FCCP, 24 hours
# Protocol: as §10, §11
# cytochrome c [14] = conditions: PGC-1α knock out preadipocytes, 25 μM FCCP, 24 hours
# Protocol: as §10, §11
# [15] = in vivo; cited from earlier work
# [16] = 10T 1/2 cells, 10 μM BAPTA with 50 μM FCCP
# [17] = 5 hours, increasing doses of FCCP (0-200 μM)
# [18] = 10T 1/2 fibroblasts, 50 μM FCCP
# Protocol for mice: The procedures to be used in these experiments are as follows: IP injections of the chemical uncoupling agent FCCP are performed daily (see experimental design for dose and time information). The body temperature of the mice is measured one hour after injections so as to monitor pain and distress. If the temperature rises above 42 degrees the mice are sacrificed. The following tissues are collected from euthanized mice: brown fat, skeletal muscle, and liver, which contribute the most to standard metabolic rate. In addition, heart, pancreas, large intestine, small intestine, gall bladder, spleen, brain, testes, and ovary are collected. Tissues are used to assess PGC-1 gene expression and protein levels.
# The maximum dose of FCCP that is used in this experiment is 0.5 mg/kg/day. The experiment is performed in C57 BL/6J and ob/ob (C57 BL/6J background) mice ordered from Jackson Laboratories.
# Mice receive one IP injection of FCCP daily. The following experiment is repeated three times for statistical significance.
# Body temperature is measured one hour after injections and weight is recorded every three days. Mice are sacrificed to avoid pain if the body temperature rises above 42 degrees. After the treatments as described above the mice are sacrificed using cervical dislocation with pre-anesthesia. […]
compound,measurement,setting,value
NC(=O)c1ncn([C@@H]2O[C@H](CO)[C@@H](O)[C@H]2O)c1N [AICAR],AMP Kinase activation (phospho-AMP kinase),"AMP Kinase; 500 μM AICAR, positive control",activation
O=C(O)CN(CC(=O)O)c1ccccc1OCCOc1ccccc1N(CC(=O)O)CC(=O)O [BAPTA],effect on FCCP-mediated induction of PGC-1α,"PGC-1α [1]; 10T 1/2 cells, 10 μM BAPTA with 50 μM FCCP, 16 hours",blocked
same,effect on FCCP-mediated induction of PGC-1β,PGC-1β [2]; [16],blocked
same,effect on FCCP-mediated induction of cytochrome c,cytochrome c [3]; [16],blocked
same,effect on FCCP-mediated induction of COX II,COX II [4]; [16],blocked
same,effect on FCCP-mediated induction of ATP synthase,ATP synthase; [16],blocked
"O=[N+]([O-])c1ccc(O)c([N+](=O)[O-])c1 [DNP, 2,4-dinitrophenol]",PGC-1α expression,"PGC-1α [5]; 5 hours, three concentrations of DNP (250 μM, 750 μM, 1 mM)",caused an increase; also recorded: induces
same,toxic effect of large doses,animals,almost immediate onset of rigor mortis
"N#CC(C#N)=NNc1ccc(OC(F)(F)F)cc1 [FCCP, carbonylcyanide-p-trifluoromethoxyphenylhydrazone]",PGC-1α expression levels,"PGC-1α [5]; 25 μM FCCP, after 5 hours, sustained for 20 additional hours",induced
same,PGC-1α expression levels,PGC-1α [5]; [17],increased
same,PGC-1β expression levels,"PGC-1β [6]; 25 μM FCCP, after 10-15 hours, remained induced until 25 hours",induced
same,PGC-1β expression levels,PGC-1β [6]; [17],did not increase
same,PGC-1α protein expression,PGC-1α protein,induced
same,cytochrome c protein levels,cytochrome c protein,induced
same,AMP Kinase activation (phospho-AMP kinase),AMP Kinase; 50 μM FCCP,activated
same,"induction of PGC-1 expression levels, real time PCR",PGC-1α [7]; 25 μM FCCP,5.5 fold
same,"increase in PGC-1α expression, real time PCR",PGC-1α [7]; 25 μM and 50 μM FCCP,5-6 fold
same,"induction of PGC-1α levels, real time PCR",PGC-1α [7]; 50 μM FCCP,5 fold
same,drop in cellular ATP levels,"HIB1B brown fat cells; 5 hours, versus untreated cells",25%
same,ATP levels below that of untreated cells,HIB1B brown fat cells; 10 hours,approximately 20%
same,PGC-1β expression levels,"PGC-1β [8]; 2 μM FCCP, after approximately 24 hours",increased
same,PGC-1β expression levels,"PGC-1β [8]; 24 hour treatment, 2 μM and 25 μM FCCP",increased
same,UCP 2 expression levels,UCP2,increased
same,expression of the PGC-1 coactivators and their target genes after long term treatment,"PGC-1α [1]; 10T 1/2 fibroblasts, 25 uM FCCP, 72 hours",remain elevated
same,PGC-1α expression,"PGC-1α [1]; 10T 1/2 fibroblasts, 50 μM FCCP, 16 hours",induced
same,PGC-1β expression,PGC-1β [2]; [18],induced
same,cytochrome c expression,cytochrome c [3]; [18],induced
same,COX II expression,COX II [4]; [18],induced
same,ATP synthase expression,ATP synthase; [18],induced
same,lactate levels,10T 1/2 fibroblasts,induced
same,NRF-1 expression,NRF-1 [9],induced
same,FCCP induction of COX II in cells that lack PGC-1α,COX II [10],blocked
same,FCCP induction of ERRα in cells that lack PGC-1α,ERRα,blocked
same,FCCP induction of NRF-1 in cells that lack PGC-1α,NRF-1 [11],blocked
same,FCCP induction of PGC-1β in cells that lack PGC-1α,PGC-1β [12],blocked
same,FCCP induction of adenine nucleotide translocase (ANT) in cells that lack PGC-1α,[13],blocked
same,FCCP induction of cytochrome c in cells that lack PGC-1α,cytochrome c [14],blocked
same,PGC-1α RNA and protein levels in brown fat and muscle tissue,mice; daily IP injection of FCCP,increase
same,body weight and adiposity,"mice; safe dose of FCCP, daily IP injection",decrease
same,LD50 for FCCP relative to that of DNP,[15],about 5 times less
N.N.N.N.N.N.N.N.N.N.N.N.N.N.[Cl-].[Cl-].[Cl-].[Cl-].[Cl-].[Cl-].[O-2].[O-2].[Ru+3].[Ru+3].[Ru+4] [Ruthenium Red],effect on FCCP-mediated induction of PGC-1α expression,"PGC-1α [5]; 5 hours, 0-50 μM Ruthenium Red with 5 μM or 25 μM FCCP, reduced at 5, 10 and 25 μM RR",blocked part
C=C1[C@@H]2CC[C@H]3[C@]4(C)C[C@H](O[C@@H]5O[C@H](CO)[C@@H](OS(=O)(=O)O)[C@H](OS(=O)(=O)O)[C@H]5OC(=O)CC(C)C)C[C@@H](C(=O)O)[C@H]4CC[C@]3(C2)[C@H]1O [atractyloside],PGC-1α expression,"PGC-1α [5]; 5 μM atractyloside, 10 hours",increased
same,PGC-1α expression,"PGC-1α [5]; 50 μM atractyloside, 5 hours",increased
Antimycin A,PGC-1α expression,PGC-1α [5]; 5 μM Antimycin A,increased
same,PGC-1α expression levels,PGC-1α [5]; 10 μM Antimycin,increase
